# “And” between values parts separate entries of the source, which are not always exact repeats. Equal entries are not always repeated.
# Key:
# [1] = test system: full-thickness excision injury scar; experiment: Murine excision injury model; format: in vivo, C57BL6/J mice
# Excerpt: Having established promising in vivo anti-fibrotic efficacy, we next evaluated a full-thickness excision injury model in mice. Full-thickness excision injuries of approximately 1.1 cm^2 (approximately 2% body surface area) of dorsal skin were created under anesthesia. From Day 2 post-injury, animals received daily application of 0, 0.5, or 1.5% PXS-6302 oil in water cream for 28 days. At the end of the experiment, all animals were euthanised and scar tissue analyzed for collagen and cross-link content. […] Therefore, when applied after injury and during the healing phase, PXS-6302 reduced collagen crosslinking and total collagen deposition in the scar. Reassuringly, the efficacy of PXS-6302 was in line with earlier studies (performed with the first-generation inhibitor, PXS-4787, Supplementary Fig. S7) albeit with what appears to be a more comprehensive impact on crosslinking at a lower dose.
# Cell pellets or isolated tissue samples were completely hydrolyzed in 1.5 mL 6 M hydrochloric acid for 24 h at 105 °C. After complete hydrolysis, samples were dried using a vacuum dryer and reconstituted using 200 µL MilliQ water. The sample clean-up was performed using solid-phase extraction method which uses C18 and SCX solid-phase extraction cartridges for sample purification. The samples were run on UPLC-MS-MS (Mass Spectrometer: Thermo Scientific TSQ Endura Triple quadrupole, UPLC: Thermo Scientific Dionex UltiMate 3000) using Agilent RRHD SB-C18,2.1x50mm,1.8um analytical column and solvent A: 10 mM ammonium formate, 0.1% formic acid, 0.1% HFBA in H2O and solvent B: 10 mM ammonium formate, 0.1% formic acid, 0.1% HFBA in MeOH and analyzed as previously described. Limits of detection are listed in Supplementary Table S4.
# Nine-week-old C57BL6/J female mice (n = 8 per group) received a full-thickness excision injury of 1.1 cm^2 on dorsal area using a circular 12-mm biopsy punch (Acu-Punch, Badand Medical, P1250) (approximately 2% body surface area) under anesthesia. All animals received intramuscular injection of buprenorphine (0.1 mg/kg) as an analgesia. Paracetamol (1 mg/ml) was provided for 5 days post-injury in drinking water. Animals were allowed to recover for 24 h post-injury. Animals in the treatment group received twice a day application of 3% PXS-4787 cream for 28 days. For PXS-6302, once per day application of 1.5% concentration cream was used. At the end of the experiment, all animals were euthanised using an intraperitoneal injection of pentobarbitone (160 mg Kg-1) under Isoflurane anesthesia, and scar tissues were removed. The scar skin was fixed in 4% paraformaldehyde overnight at 4 °C. After fixation, tissues were washed in sterile PBS at room temperature. Samples were processed in Leica ASP300S Tissue Processor followed by embedding in paraffin blocks using tissue processor (Leica EG1150 modular tissue embedding center). The paraffin blocks were sectioned at 5 µm thickness using a wax microtome (fully automated Leica RM2255). For standard histology, the skin sections were stained with hematoxylin and eosin stain and Masson’s Trichrome stain. The stained sections were used to determine the collagen fiber orientation in the control and treatment specimens. All stained skin tissue sections were processed for whole slide imaging using a ScanScopeXT (Aperio Technologies, USA) at 20-x magnification. The digital images were collected and analyzed using ImageScope software (Aperio Techologies, Inc, USA). A piece of excised mouse scar tissue was processed for the collagen crosslinks extraction. The scar skin was weighed and homogenized in 900 µL PBS (FastPrep-24TM5G(MP) homogenizer). The tissue homogenate equivalent to 10 mg tissue was transferred to heat/acid resistant screw cap tube (VWR 16466-060) and the total volume of 870 µL was adjusted with PBS. The tissue homogenate was reduced with a Sodium borohydride buffer and processed for cross-link extraction protocol as mentioned in previous section.
# [2] = test system: full-thickness excision injury scar; experiment: Porcine excision injury model; format: in vivo, pigs
# Adrenergic β1 = Adrenergic β1 (Homo sapiens, UniProt P08588); experiment: Eurofins panel 204010; format: binding
# Chain of Adrenergic β1 (P08588 whole entry): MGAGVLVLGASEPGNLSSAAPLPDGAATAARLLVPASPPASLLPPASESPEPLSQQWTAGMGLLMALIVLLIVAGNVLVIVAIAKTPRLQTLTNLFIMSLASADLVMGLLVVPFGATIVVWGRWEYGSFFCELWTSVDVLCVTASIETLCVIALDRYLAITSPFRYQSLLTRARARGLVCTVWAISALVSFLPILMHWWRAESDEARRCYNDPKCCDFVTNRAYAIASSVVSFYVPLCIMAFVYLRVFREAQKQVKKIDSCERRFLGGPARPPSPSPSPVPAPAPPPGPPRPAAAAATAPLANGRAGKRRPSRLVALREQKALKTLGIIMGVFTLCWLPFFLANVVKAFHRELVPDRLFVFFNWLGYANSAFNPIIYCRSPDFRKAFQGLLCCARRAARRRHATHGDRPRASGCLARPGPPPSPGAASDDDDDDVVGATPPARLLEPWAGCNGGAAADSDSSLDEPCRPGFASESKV
# Adrenergic β2 = Adrenergic β2 (Homo sapiens, UniProt P07550); experiment: Eurofins panel 204110; format: binding
# Chain of Adrenergic β2 (P07550 whole entry): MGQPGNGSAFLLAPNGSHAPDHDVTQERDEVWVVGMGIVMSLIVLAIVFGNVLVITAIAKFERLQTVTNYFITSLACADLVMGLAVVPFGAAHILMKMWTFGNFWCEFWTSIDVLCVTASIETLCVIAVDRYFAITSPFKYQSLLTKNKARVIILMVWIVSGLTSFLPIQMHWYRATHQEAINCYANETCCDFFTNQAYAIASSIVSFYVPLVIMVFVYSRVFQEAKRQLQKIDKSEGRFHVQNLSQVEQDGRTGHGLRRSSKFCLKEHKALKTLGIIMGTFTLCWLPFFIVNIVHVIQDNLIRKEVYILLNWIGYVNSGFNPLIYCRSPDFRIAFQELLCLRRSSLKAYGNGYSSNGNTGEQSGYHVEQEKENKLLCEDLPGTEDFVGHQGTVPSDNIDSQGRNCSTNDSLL
# Androgen (Testosterone) = experiment: Eurofins panel 206000; format: binding, human
# Dopamine D1 = Dopamine D1 (Homo sapiens, UniProt P21728); experiment: Eurofins panel 219500; format: binding
# Chain of Dopamine D1 (P21728 whole entry): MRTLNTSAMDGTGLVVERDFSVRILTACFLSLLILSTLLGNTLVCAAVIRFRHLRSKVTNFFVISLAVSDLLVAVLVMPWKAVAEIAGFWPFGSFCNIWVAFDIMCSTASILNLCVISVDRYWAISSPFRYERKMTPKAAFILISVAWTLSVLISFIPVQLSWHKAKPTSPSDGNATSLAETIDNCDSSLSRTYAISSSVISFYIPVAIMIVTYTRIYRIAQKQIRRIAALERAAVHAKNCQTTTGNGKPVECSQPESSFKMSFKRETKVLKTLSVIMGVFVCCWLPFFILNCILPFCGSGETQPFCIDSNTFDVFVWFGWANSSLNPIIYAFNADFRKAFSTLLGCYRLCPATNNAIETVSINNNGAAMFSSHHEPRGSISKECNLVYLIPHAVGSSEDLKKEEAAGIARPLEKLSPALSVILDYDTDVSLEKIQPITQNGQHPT
# Muscarinic M2 = Muscarinic M2 (Homo sapiens, UniProt P08172); experiment: Eurofins panel 252710; format: binding
# Chain of Muscarinic M2 (P08172 whole entry): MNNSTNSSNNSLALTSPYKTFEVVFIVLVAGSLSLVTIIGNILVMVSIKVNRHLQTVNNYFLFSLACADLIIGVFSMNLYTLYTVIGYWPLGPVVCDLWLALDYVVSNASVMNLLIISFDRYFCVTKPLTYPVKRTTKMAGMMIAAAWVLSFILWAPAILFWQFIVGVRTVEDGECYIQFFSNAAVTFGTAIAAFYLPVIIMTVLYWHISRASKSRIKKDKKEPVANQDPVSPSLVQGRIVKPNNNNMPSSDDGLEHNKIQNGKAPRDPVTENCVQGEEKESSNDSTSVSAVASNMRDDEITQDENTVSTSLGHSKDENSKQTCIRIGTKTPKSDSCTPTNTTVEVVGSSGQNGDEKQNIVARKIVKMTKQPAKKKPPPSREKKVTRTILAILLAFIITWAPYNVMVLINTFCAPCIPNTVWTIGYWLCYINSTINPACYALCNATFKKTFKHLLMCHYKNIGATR
# Opiate δ1 (OP1, DOP) = Opiate δ1 (OP1, DOP) (Homo sapiens, UniProt P41143); experiment: Eurofins panel 260130; format: binding
# Chain of Opiate δ1 (OP1, DOP) (P41143 whole entry): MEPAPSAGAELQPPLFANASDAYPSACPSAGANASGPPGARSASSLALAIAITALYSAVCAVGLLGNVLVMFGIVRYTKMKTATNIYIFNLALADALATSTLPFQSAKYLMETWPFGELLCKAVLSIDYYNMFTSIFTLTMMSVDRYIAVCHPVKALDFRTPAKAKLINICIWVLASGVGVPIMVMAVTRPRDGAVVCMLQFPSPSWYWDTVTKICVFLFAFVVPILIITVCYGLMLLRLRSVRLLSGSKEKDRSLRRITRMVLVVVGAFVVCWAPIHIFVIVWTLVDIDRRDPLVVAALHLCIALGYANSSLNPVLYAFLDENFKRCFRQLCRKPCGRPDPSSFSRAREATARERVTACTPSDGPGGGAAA
# Opiate κ(OP2, KOP) = Opiate κ(OP2, KOP) (Homo sapiens, UniProt P41145); experiment: Eurofins panel 260210; format: binding
# Chain of Opiate κ(OP2, KOP) (P41145 whole entry): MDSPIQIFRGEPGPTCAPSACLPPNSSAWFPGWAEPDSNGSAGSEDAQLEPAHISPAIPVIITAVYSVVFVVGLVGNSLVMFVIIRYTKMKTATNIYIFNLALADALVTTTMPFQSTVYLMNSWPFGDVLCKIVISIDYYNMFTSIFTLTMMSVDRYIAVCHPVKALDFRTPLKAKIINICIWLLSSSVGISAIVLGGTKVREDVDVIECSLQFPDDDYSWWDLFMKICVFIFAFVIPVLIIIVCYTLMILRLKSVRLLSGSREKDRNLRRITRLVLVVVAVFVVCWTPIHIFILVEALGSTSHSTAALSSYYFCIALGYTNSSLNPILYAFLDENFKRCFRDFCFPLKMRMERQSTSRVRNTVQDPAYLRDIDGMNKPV
# Sodium Channel, Site 2 = experiment: Eurofins panel 279510; format: binding, rat
# DAO = target: T1, DAO (Homo sapiens, UniProt P19801); experiment: Compound oxidation by DAO; format: biochemical
# T1 sequence (P19801 20-751): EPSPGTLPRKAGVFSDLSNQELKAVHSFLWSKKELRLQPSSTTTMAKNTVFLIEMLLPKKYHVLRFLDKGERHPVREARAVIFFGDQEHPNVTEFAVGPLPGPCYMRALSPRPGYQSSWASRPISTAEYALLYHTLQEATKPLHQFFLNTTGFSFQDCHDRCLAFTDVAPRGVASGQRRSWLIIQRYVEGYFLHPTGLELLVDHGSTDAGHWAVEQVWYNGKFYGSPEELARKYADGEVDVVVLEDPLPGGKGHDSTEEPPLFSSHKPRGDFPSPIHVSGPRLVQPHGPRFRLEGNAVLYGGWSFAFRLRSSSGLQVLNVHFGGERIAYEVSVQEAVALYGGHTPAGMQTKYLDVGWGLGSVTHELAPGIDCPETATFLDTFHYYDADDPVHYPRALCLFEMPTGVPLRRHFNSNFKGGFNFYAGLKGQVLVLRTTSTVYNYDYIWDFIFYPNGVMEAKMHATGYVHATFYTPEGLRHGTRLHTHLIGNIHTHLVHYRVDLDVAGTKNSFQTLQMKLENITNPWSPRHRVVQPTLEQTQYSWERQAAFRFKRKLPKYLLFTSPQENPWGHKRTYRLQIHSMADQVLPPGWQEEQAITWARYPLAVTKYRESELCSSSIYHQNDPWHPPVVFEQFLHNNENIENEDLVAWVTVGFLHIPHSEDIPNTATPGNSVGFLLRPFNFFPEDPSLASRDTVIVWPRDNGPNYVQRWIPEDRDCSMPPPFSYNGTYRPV
# [3] = 3% PXS-4787, individual samples
# [4] = 0.5 or […] cream daily for 28 days
compound,measurement,setting,value
NC/C=C(\F)CS(=O)(=O)c1ccccc1 [PXS-4787],DLHNL,[1]; [3],32.598 pmol/mg tissue and 48.992 pmol/mg tissue and 38.94 pmol/mg tissue and 30.0045 pmol/mg tissue and 38.524 pmol/mg tissue and 51.535 pmol/mg tissue and 45.099 pmol/mg tissue and 36.456 pmol/mg tissue and 45.26 pmol/mg tissue
same,DPD,[1]; [3],0.2026 pmol/mg tissue and 0.9604 pmol/mg tissue and 0.9521 pmol/mg tissue and 0.3416 pmol/mg tissue and 0.3259 pmol/mg tissue and 0.4694 pmol/mg tissue and 0.5793 pmol/mg tissue and 0.3046 pmol/mg tissue
same,HLNL,[1]; [3],11.709 pmol/mg tissue and 8.873 pmol/mg tissue and 7.946 pmol/mg tissue and 7.092 pmol/mg tissue and 8.4919 pmol/mg tissue and 8.338 pmol/mg tissue and 7.8195 pmol/mg tissue and 7.455 pmol/mg tissue
same,HYP,[1]; [3],8529.4 pmol/mg tissue and 13422.8 pmol/mg tissue and 10345 pmol/mg tissue and 7129.2 pmol/mg tissue and 10620.5 pmol/mg tissue and 15497 pmol/mg tissue and 11840.8 pmol/mg tissue and 10529.6 pmol/mg tissue and 12893.7 pmol/mg tissue
same,PYD,[1]; [3],3.941 pmol/mg tissue and 2.065 pmol/mg tissue and 3.401 pmol/mg tissue and 3.561 pmol/mg tissue and 3.481 pmol/mg tissue and 3.75 pmol/mg tissue and 2.469 pmol/mg tissue and 2.034 pmol/mg tissue
same,collagen cross-links formation in mouse scar,[1]; 3% cream for 28 days,Reduced
same,Surgeon score dose response,[2]; 0.5 %,16 and 20 and 14
same,Surgeon score dose response,[2]; 3%,11 and 10 and 12 and 9
same,Lox enzyme activity in scars,"[2]; 3% cream, 24 hours after final application",significantly inhibited
same,scar appearance rank (0 best to 3 worst) by blinded plastic surgeons,"[2]; 3% cream, treatment commenced at 3 weeks post-injury, analysed at 12 weeks",significant improvements in scar appearance
same,LOX activity S/N,"[2]; PXS-4787, individual samples",2.7 and 1.5 and 1.8 and 1.4 and 1.3
same,inhibition at 10 µM,Adrenergic β1; 10 µM,-3%
same,inhibition at 10 µM,Adrenergic β2; 10 µM,10%
same,% Inh.,Androgen (Testosterone); 10 µM,2%
same,inhibition at 10 µM,Dopamine D1; 10 µM,3%
same,inhibition at 10 µM,Muscarinic M2; 10 µM,7%
same,inhibition at 10 µM,"Opiate δ1 (OP1, DOP); 10 µM",5%
same,inhibition at 10 µM,"Opiate κ(OP2, KOP); 10 µM",3%
same,% Inh.,"Sodium Channel, Site 2; 10 µM",13%
NC/C=C(\F)C(F)(F)S(=O)(=O)c1ccccc1 [PXS-6302],"DAO specificity (Fig 2G), oxidation, individual experiments",DAO; 30,1.03 and 0.98 and 1 and 1.08 and 0.97 and 0.99 and 1.04 and 1.01 and 1.07 and 0.91
same,"DAO specificity (Fig 2G), oxidation, individual experiments",DAO; 60,1.17 and 1.11 and 1.01
same,"DAO specificity (Fig 2G), oxidation, individual experiments",DAO; 90,1.87 and 1.39 and 1.55
same,DHLNL,"[1]; 0.5%, individual animals",67.3445 pmol/mg protein and 104.493 pmol/mg protein and 49.564 pmol/mg protein and 93.5833 pmol/mg protein and 114.502 pmol/mg protein and 104.151 pmol/mg protein and 87.6663 pmol/mg protein and 102.971 pmol/mg protein
same,DPD,"[1]; 0.5%, individual animals",0.09524 pmol/mg protein and 0.2563 pmol/mg protein and 0.2515 pmol/mg protein and 0.4184 pmol/mg protein and 0.4492 pmol/mg protein and 0.4037 pmol/mg protein and 0.2113 pmol/mg protein and 0.2885 pmol/mg protein
same,HLNL,"[1]; 0.5%, individual animals",0.7003 pmol/mg protein and 0.9861 pmol/mg protein and 0.7921 pmol/mg protein and 1.215 pmol/mg protein and 1.527 pmol/mg protein and 1.179 pmol/mg protein and 1.122 pmol/mg protein and 0.9282 pmol/mg protein
same,HYP,"[1]; 0.5%, individual animals",135437 pmol/mg protein and 169286 pmol/mg protein and 127310 pmol/mg protein and 207537 pmol/mg protein and 183083 pmol/mg protein and 195703 pmol/mg protein and 151852 pmol/mg protein and 169426 pmol/mg protein
same,PYD,"[1]; 0.5%, individual animals",1.932 pmol/mg protein and 5.635 pmol/mg protein and 3.784 pmol/mg protein and 5.7092 pmol/mg protein and 5.347 pmol/mg protein and 5.273 pmol/mg protein and 4.615 pmol/mg protein and 4.89 pmol/mg protein
same,hydroxyproline concentration in scar,[1]; [4],dose-dependent reduction
same,mature and immature crosslinks in scar,[1]; [4],dose-dependently diminished
same,Excision injury scar scores (average score of all surgeons for each wound/tx group),[2]; 3%,9 and 6.667 and 6 and 5.667 and 5 and 6.333 and 9.667 and 9.333
same,scar score 1–10 by blinded plastic surgeons,"[2]; 3% cream once daily, 12 weeks",significantly higher scores
same,LOX activity in scar tissue,"[2]; 24 h after the final dose, once daily cream",significantly reduced
same,S/N ration LOX activity (Fig. 8A),"[2]; porcine scar 24 h after final daily application, individual samples",1.073 and 0.9572 and 1.114 and 1.845 and 1.506
same,inhibition at 30 µM,Adrenergic β1; read-out: % Inh.,4%
same,inhibition at 30 µM,Adrenergic β2; read-out: % Inh.,17%
same,% Inh.,Androgen (Testosterone); 30 µM,-14%
same,inhibition at 30 µM,Dopamine D1; read-out: % Inh.,0%
same,inhibition at 30 µM,Muscarinic M2; read-out: % Inh.,16%
same,inhibition at 30 µM,"Opiate δ1 (OP1, DOP); read-out: % Inh.",26%
same,inhibition at 30 µM,"Opiate κ(OP2, KOP); read-out: % Inh.",10%
same,% Inh.,"Sodium Channel, Site 2; 30 µM",66%
"N#CCCN [BAPN, β-aminoproprionitrile, reference compound]","DAO specificity (Fig 2G), oxidation, individual experiments",DAO; 30,3.03 and 4.57 and 4.19 and 2.62 and 3.96
same,"DAO specificity (Fig 2G), oxidation, individual experiments",DAO; 60,5.81 and 3.22 and 2.98 and 4.96
same,"DAO specificity (Fig 2G), oxidation, individual experiments",DAO; 90,9.3 and 4.42 and 7.32

# Source: paper PMC9500072, “Topical application of an irreversible small molecule inhibitor of lysyl oxidases ameliorates skin scarring and fibrosis” (Nature Communications, 2022)
